By EC50 is commonly meant the midpoint of the concentration-response curve.

One assay deals with T1, human TGR5 receptor (Homo sapiens, UniProt Q8TDU6).
T1 construct: host or cells: CHO-K1 (hTGR5-CHO)
T1 sequence (Q8TDU6 1-330): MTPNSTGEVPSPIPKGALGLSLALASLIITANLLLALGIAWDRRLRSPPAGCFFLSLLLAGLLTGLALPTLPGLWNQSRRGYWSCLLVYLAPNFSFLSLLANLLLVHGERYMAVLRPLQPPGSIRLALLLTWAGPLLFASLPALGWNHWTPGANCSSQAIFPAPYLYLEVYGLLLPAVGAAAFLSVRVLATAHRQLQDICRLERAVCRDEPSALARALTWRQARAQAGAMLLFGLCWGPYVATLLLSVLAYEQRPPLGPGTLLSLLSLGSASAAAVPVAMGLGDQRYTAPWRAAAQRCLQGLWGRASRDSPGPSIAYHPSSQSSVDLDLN
Description: Human TGR5 cAMP production assay (hTGR5-CHO cells, DiscoveRx cAMP XS+ kit). The format is cell-based. The following applies: luminescent cAMP assay, read-out: Human TGR5 Lum. cAMP Activity (EC50). The protocol: Human TGR5 cAMP Production Assay
Compounds of the present invention were evaluated for their ability to induce cAMP production using CHO-K1 cells overexpressing the human TGR5 receptor.
CHO-K1 cells stably expressing human TGR5 receptor (accession number NM_001077194.1) (hTGR5) (i.e., hTGR5-CHO cells) were purchased from DiscoveRx Corporation (Fremont, Calif.). hTGR5-CHO cells were grown in Ham's F-12 media supplemented with 10% Fetal Bovine Serum, 1% Penicillin-Streptomycin, 2 mM L-Alanine L-Glutamine (Glutamax), and 800 μg/mL Geneticin selection. The cAMP production assay was performed using DiscoveRx's cAMP XS+ kit (Catalog No. 90-0075XL) following the manufacturer's recommended protocol. Briefly, hTGR5-CHO cells were harvested using non-enzymatic cell dissociation buffer (Sigma-Aldrich, St. Louis, Mo.) and 1×10^6 cells were combined in Phosphate-Buffered Saline (PBS) to a final volume of 496 μL to which 4 μL of 125 mM IBMX (Sigma-Aldrich, St. Louis, Mo.) was added. 500 μL of cAMP antibody solution was added to the harvested cells and incubated at room temperature for 20 min.
Test compounds were serially diluted (half-log dilutions) in DMSO and then further diluted 1:50 in PBS, 10 mM HEPES buffer. 2 μL of serially diluted compound was added to a 384-well low volume plate (Greiner; cat #784075) and centrifuged briefly. 2 μl of the cell/cAMP antibody mixture was then added to each compound-containing well and allowed to incubate at room temperature for one hour. Following incubation, the XS+ kits' ED/Lysis/CL Substrate Working Solution was prepared following the manufacturer's recommended protocol and 4 μL was added to each well of the plate. The plate was then incubated for one hour at room temperature. Following incubation, 4 μL of Enzyme Acceptor reagent was added to the plate and allowed to incubate overnight at room temperature. Luminescent signal was then detected using the Viewlux instrument (Perkin-Elmer, Waltham, Mass.).
Human and Mouse TGR5 cAMP
(§1) In Table 52, EC50 values for both human and mouse cells were determined according to the TGR5 cAMP assays described above. […]
For orientation: cAMP levels reflect the balance of adenylyl cyclase and phosphodiesterase activity.

A further assay addresses T2, mouse TGR5 receptor (Mus musculus, UniProt Q80SS6).
T2 construct: host or cells: HEK293-EBNA (293 c18, ATCC CRL10852)
T2 sequence (Q80SS6 1-329): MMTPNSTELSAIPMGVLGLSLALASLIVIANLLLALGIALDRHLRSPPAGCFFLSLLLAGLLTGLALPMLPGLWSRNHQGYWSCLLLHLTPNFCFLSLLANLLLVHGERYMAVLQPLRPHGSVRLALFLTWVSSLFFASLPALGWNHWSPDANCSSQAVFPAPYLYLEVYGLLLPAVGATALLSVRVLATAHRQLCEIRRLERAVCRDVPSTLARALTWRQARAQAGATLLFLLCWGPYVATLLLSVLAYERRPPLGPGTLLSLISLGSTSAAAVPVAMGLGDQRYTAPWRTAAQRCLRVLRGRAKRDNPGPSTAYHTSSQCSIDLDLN
Description: Mouse TGR5 HTRF cAMP production assay (HEK293-EBNA cells, Cisbio cAMP HiRange kit). The following applies: HEK293-EBNA cells overexpressing mouse TGR5, HTRF cAMP assay. The format is cell-based. The protocol: Mouse TGR5 cAMP Production Assay
Compounds of the present invention were evaluated for their ability to induce cAMP production in HEK-EBNA cells overexpressing the mouse TGR5 receptor. Human embryonic kidney cells (HEK293-EBNA) stably expressing mouse TGR5 receptor were established using the following procedure. Specifically, a commercially obtained gene encoding mouse TGR5 (accession number BC116914) from Thermo Scientific (Waltham, Mass.) was cloned into an episomal expression vector. The resulting expression plasmid was then transfected into 293 c18 (ATCC® CRL10852™) cells, which express the Epstein-Barr virus nuclear antigen EBNA1 and can support the replication of episomal vectors. Selection for the plasmid was maintained with Hygromycin B. Cells were cultured and maintained in DMEM (Sigma; cat #6429) supplemented with 10% Fetal Bovine Serum, 1% penicillin/streptomycin, 2 mM L-alanine L-glutamine (GlutaMax), and 250 μg/mL Hygromycin.
We developed two cAMP production assays.
(ii) HTRF cAMP Production Assay
In this second cAMP production assay, the cAMP production was measured in 384-well low volume plates (Greiner; cat #784075) using the Cisbio™ cAMP HiRange HTRF Assay Kit (CisBio) according to the manufacturer's protocol.
Briefly, compounds were initially diluted in 100% DMSO (12-point serial dilution by half logs) in a 96-well plate and then were further diluted 1:50 in PBS containing 10 mM HEPES. 5 μL were transferred to the 384-well assay plate in duplicate. HEK293-EBNA cells stably overexpressing mouse TGR5 were harvested using non-enzymatic cell dissociation buffer (Sigma), spun down, then resuspended in serum-free DMEM with 500 μM IBMX at a density of 500,000 cells/mL. 5 μL of cell suspension was transferred to each well of the 384-well assay plate already containing compound. The plate was covered and incubated at room temperature for 1 hour. The d2-cAMP and anti-cAMP Ab-cryptate stock solutions were prepared as per kit instructions. Then 5 μL of each conjugate (d2 and cryptate) were added to each well of the assay plate. The plate was covered and incubated at room temperature for one (1) hour. The plate was read on an Envision™ plate reader (PerkinElmer).
as §1
A general note: Time-resolved FRET reads energy transfer from a long-lived donor to a nearby acceptor.

Structures can show the parent of a compound that is named as a salt.

Turning to `N#CCCC1CCN(c2cc(N3CCC[C@H]3C(=O)NCCc3ccc(C(F)(F)F)cc3)nc(C(F)(F)F)n2)CC1` [Compound 11], the EC50 on human TGR5 receptor and on mouse TGR5 receptor was under 100 nM each time.

Consider `N#Cc1ccc(CCNC(=O)[C@@H]2CCCN2c2cc(NCCS(=O)(=O)O)nc(C(F)(F)F)n2)cc1` [Compound 12], for which the EC50 at human TGR5 receptor and at mouse TGR5 receptor was 1000 to 30000 nM each time.

Turning to `CN(C)CCC1CCN(c2cc(N3CCC[C@H]3C(=O)NCCc3ccc(C#N)cc3)nc(C(F)(F)F)n2)CC1` [Compound 21], the EC50 at human TGR5 receptor is under 100 nM; on mouse TGR5 receptor it was 100 to 999 nM.

Take `N#Cc1ccc(CCNC(=O)[C@@H]2CCCN2c2cc(N3CCC(CCCO)CC3)nc(C(F)(F)F)n2)cc1` [Compound 23]: the EC50 on human TGR5 receptor and at mouse TGR5 receptor was under 100 nM throughout.

Regarding `COCCC1CCN(c2cc(N3CCC[C@H]3C(=O)NCCc3ccc(C#N)cc3)nc(C(F)(F)F)n2)CC1` [Compound 25], the EC50 at human TGR5 receptor and on mouse TGR5 receptor was under 100 nM each time.

In the case of `N#Cc1ccc(CCNC(=O)[C@@H]2CCCN2c2cc(N3CCC(CC(=O)O)CC3)nc(C(F)(F)F)n2)cc1` [Compound 27], the EC50 is 100 to 999 nM at human TGR5 receptor and under 100 nM on mouse TGR5 receptor.

As to `CN(C)CCN1CCN(c2cc(N3CCC[C@H]3C(=O)NCCc3ccc(C#N)cc3)nc(C(F)(F)F)n2)CC1` [Compound 30], the EC50 at human TGR5 receptor and on mouse TGR5 receptor was 100 to 999 nM in each case.

As for `N#Cc1ccc(CCNC(=O)[C@@H]2CCCN2c2cc(N3CCN(CCO)CC3)nc(C(F)(F)F)n2)cc1` [Compound 31], the values for the EC50 on human TGR5 receptor and on mouse TGR5 receptor were 100 to 999 nM and under 100 nM, respectively.

Take `O=C(O)CCCC1CCN(c2cc(N3CCC[C@H]3C(=O)NCCc3ccc(Cl)cc3Cl)ncn2)CC1` [Compound 35]: the figures for the EC50 on human TGR5 receptor and at mouse TGR5 receptor were 1000 to 30000 nM and 100 to 999 nM, respectively.

Consider `Cc1nc(N2CCC(CO)CC2)cc(N2CCC[C@H]2C(=O)NCCc2ccc(C#N)cc2)n1` [Compound 36], for which the EC50 at human TGR5 receptor lay within 100 to 999 nM; at mouse TGR5 receptor, 1000 to 30000 nM.

Take `N#Cc1ccc(CCNC(=O)[C@@H]2CCCN2c2cc(C(F)(F)F)cc(N3CCC(CO)CC3)n2)cc1` [Compound 37]: the values for the EC50 at human TGR5 receptor and at mouse TGR5 receptor were 1000 to 30000 nM and over 30000 nM, respectively.

`CCOC(=O)CCNC(=O)NCCC1CCN(c2cc(N3CCC[C@H]3C(=O)NCCc3ccc(C#N)cc3)nc(C(F)(F)F)n2)CC1` [Compound 55, (S)-ethyl 3-(3-(2-(1-(6-(2-((4-cyanophenethyl)carbamoyl)pyrrolidin-1-yl)-2-(trifluoromethyl)pyrimidin-4-yl)piperidin-4-yl)ethyl)ureido)propanoate]: the EC50 at human TGR5 receptor and at mouse TGR5 receptor was under 100 nM in each case.

With `COC(=O)[C@H](CCC[N+](C)(C)C)NC(=O)CCCC1CCN(c2cc(N3CCC[C@H]3C(=O)NCCc3ccc(C#N)cc3)nc(C(F)(F)F)n2)CC1` [Compound 65, (S)-4-(4-(1-(6-((S)-2-((4-cyanophenethyl)carbamoyl)pyrrolidin-1-yl)-2-(trifluoromethyl)pyrimidin-4-yl)piperidin-4-yl)butanamido)-5-methoxy-N,N,N-trimethyl-5-oxopentan-1-aminium], the EC50 at human TGR5 receptor and on mouse TGR5 receptor was under 100 nM in each case.

Consider `COC(=O)[C@@H](N)CCCCNC(=O)CCCC1CCN(c2cc(N3CCC[C@H]3C(=O)NCCc3ccc(C#N)cc3)nc(C(F)(F)F)n2)CC1` [Compound 71, (S)-methyl 2-amino-6-(4-(1-(6-((S)-2-((4-cyanophenethyl)carbamoyl)-pyrrolidin-1-yl)-2-(trifluoromethyl)-pyrimidin-4-yl)piperidin-4-yl)butanamido)hexanoate], for which the EC50 on human TGR5 receptor and on mouse TGR5 receptor was under 100 nM throughout.

Take `N[C@@H](CCC(=O)NCCCC1CCN(c2cc(N3CCC[C@H]3C(=O)NCCc3ccc(C(F)(F)F)cc3)nc(C(F)(F)F)n2)CC1)C(=O)O` [Compound 77, (S)-2-amino-5-oxo-5-((3-(1-(2-(trifluoromethyl)-6-((S)-2-((4-(trifluoromethyl)phenethyl)carbamoyl)pyrrolidin-1-yl)pyrimidin-4-yl)piperidin-4-yl)propyl)amino)pentanoic acid]: the EC50 at human TGR5 receptor and on mouse TGR5 receptor was under 100 nM each time.

Turning to `N#Cc1ccc(CCNC(=O)[C@@H]2CCCN2c2cc(N3CCC(CCNC(=O)N[C@H](CC(=O)O)C(=O)O)CC3)nc(C(F)(F)F)n2)cc1` [Compound 82, (R)-2-(3-(2-(1-(6-((S)-2-((4-cyanophenethyl)carbamoyl)pyrrolidin-1-yl)-2-(trifluoromethyl)pyrimidin-4-yl)piperidin-4-yl)ethyl)ureido)succinic acid], the EC50 on human TGR5 receptor and at mouse TGR5 receptor was under 100 nM in each case.

With `CC1(CO)CCN(C(=O)NCCC2CCN(c3cc(N4CCC[C@H]4C(=O)NCCc4ccc(C#N)cc4)nc(C(F)(F)F)n3)CC2)CC1` [Compound 84, (S)-N-(2-(1-(6-(2-((4-cyanophenethyl)carbamoyl)pyrrolidin-1-yl)-2-(trifluoromethyl)pyrimidin-4-yl)piperidin-4-yl)ethyl)-4-(hydroxymethyl)-4-methylpiperidine-1-carboxamide], the EC50 at human TGR5 receptor and on mouse TGR5 receptor was under 100 nM in each case.

Consider `NCCNC(=O)CCCC1CCN(c2cc(N3CCC[C@H]3C(=O)NCCc3ccc(C(F)(F)F)cc3)nc(C(F)(F)F)n2)CC1` [Compound 90, (S)-1-(6-(4-(4-((2-aminoethyl)amino)-4-oxobutyl)piperidin-1-yl)-2-(trifluoromethyl)pyrimidin-4-yl)-N-(4-(trifluoromethyl)phenethyl)pyrrolidine-2-carboxamide hydrochloride], for which the EC50 on human TGR5 receptor and at mouse TGR5 receptor was under 100 nM each time.

With `N#Cc1ccc(CCNC(=O)[C@@H]2CCCN2c2cc(N3CCC(CCCC(=O)NCCN)CC3)nc(C(F)(F)F)n2)cc1` [Compound 92, (S)-1-(6-(4-(4-((2-aminoethyl)amino)-4-oxobutyl)piperidin-1-yl)-2-(trifluoromethyl)pyrimidin-4-yl)-N-(4-cyanophenethyl)pyrrolidine-2-carboxamide], the 50% effective concentration (EC50) on human TGR5 receptor and on mouse TGR5 receptor was under 100 nM throughout.

For the origin of these results see patent publication US10654834B2 (Venenum Biodesign, LLC, priority 2016, dated 2020).
